Measured values: patent US20030228299A1, “Use of antioxidant for treating and/or preventing surface ocular disorders” (priority 2003, published 2003)

Experiments:
[1] = test system: corneal and conjunctival cells of human origin, in culture; test: Hydroethidine test of superoxide anion production; format: cell-based; settings: different concentrations; cells exposed to various aggressors
Method: Corneal and conjunctival cells of human origin, in culture, exposed to various aggressors in order to induce the release of free radicals, are treated with the active compounds of the present invention (Cu/Zn SOD or alpha-lipoic acid) at different concentrations, or are left untreated.
Hydroethidine (Molecular Probes) is a fluorogenic probe which is oxidized to the ethidium cation in the presence of the superoxide anion. This probe becomes fluorescent when it binds to the superoxide anion (λexc.=490 nm−λem.=600 nm, I=6 V). The hydroethidine solution used is a 5 μM solution. The cell cultures are placed for 10 minutes in DMEM containing the probe, after which the cells are extracted in order to measure the production of superoxide anion. The measurement is made in 96-well microplates.
The analyses are thus performed on 5000 cells per well, each measurement being repeated six times. The results are expressed in fluorescence units. The mean fluorescence values are calculated in each group and compared by a Mann-Whitney non-parametric U-test.

[2] = test system: corneal and/or conjunctival cells of human origin, in culture; test: Dichlorofluorescein diacetate (DCFH-DA) test of free radicals (hydrogen peroxide); format: cell-based; settings: different concentrations; cells exposed to environmental agents
Method: The tests are performed by cytofluorimetric microtitration in cold light. […] It combines the reproducibility of the microplate methods with the sensitivity of the cytometric methods and has a very broad detection spectrum (280-870 nm). The microplate is scanned by a pencil of light of a given wavelength which illuminates each culture well for less than 0.3 second, thereby limiting any probe extinction phenomenon.
Corneal and/or conjunctival cells of human origin, in culture, are exposed to various environmental agents in order to induce the release of free radicals. The active compounds of the invention (Cu/Zn SOD or alpha-lipoic acid) are tested at different concentrations on this model. The presence of free radicals in the culture medium is evaluated by the DCFH-DA test (Molecular Probes, Eugene, Oreg., USA) in fluorimetry (λexc.=490 nm−rem.=535 nm, I=4 V). The fluorogenic probe becomes fluorescent when it binds to hydrogen peroxide. The DCFH-DA solution used is a 20 μM solution in Dulbecco-modified minimum essential medium (DMEM). The cultures are then placed for 20 minutes in DMEM containing the probe, after which they are extracted in order to measure the production of hydrogen peroxide. The measurement is made directly on the cells in 96-well plates (Debbasch C. et al. 2000).

[3] = test system: continuous-line conjunctival cells (Wong-Kilbourne derivative of Chang conjunctiva, clone 1-5C-4, ATCC CCL-20.2); test: Apoptosis induced by benzalkonium chloride, percentage of cellular DNA in the sub-G1 phase by flux cytofluorimetry; format: cell-based
Method: The apoptosis induced by benzalkonium chloride was chosen as the model of superficial eye disorders treated and/or prevented by the invention.
This study of apoptosis is conducted using flux cytofluorimetry to compare the percentage of DNA in the sub-G1 phase obtained before and after treatment with the compounds of the invention.
In fact, apoptosis is characterized by a fragmentation of the DNA into identical fragments of 200 base pairs. The cells involved in this process therefore have a reduced DNA content.
This fragmentation of the DNA can be measured in situ by flux cytofluorimetry using the DNA stain propidium iodide. The reduced DNA appears with a lower fluorescence intensity than that of normal cells. […] The number of normal cells appears in the G1 peak zone. On the other hand, the cells which have a lower fluorescence intensity, i.e. those whose DNA has been fragmented, appear underneath this G1 peak, i.e. in what is called the sub-G1 peak located in the zone marked M1 in FIG. 1.
Apoptosis was induced by adding 0.001% by volume of benzalkonium chloride (BAC), based on the total volume of the sample, to DMEM (Dulbecco-modified Eagle's medium: reference 21885, Gibco BRL Products; enriched with 10% by volume of fetal calf serum, based on the total volume of the sample, and supplemented with […] of streptomycin and 50 IU/ml of penicillin) in which conjunctival cells are cultivated in 6-well plates.
In practice, the conjunctival cells were cultivated in the culture medium described above and, at 80% confluence, SOD, alpha-lipoic acid and mixtures thereof were added and incubation was carried out for 45 minutes at 37° C. Benzalkonium chloride was then added to each well. After 15 minutes of incubation, the supernatants in each well were collected in 15 ml tubes; the cells were detached by the action of 0.25% trypsin for 5 minutes at 37° C. and added to their respective supernatants. After centrifugation of the tubes, the cells were washed twice in phosphate buffer. The cellular residue was resuspended in phosphate buffer at a concentration of 1 million cells per milliliter.
One hundred microliters of this cellular suspension having a concentration of 10^6/ml were first fixed and permeabilized in one milliliter of absolute ethanol at −20° C. for one hour; then, after washing in phosphate buffer, the DNA was stained with propidium iodide (100 microliters at a concentration of 0.5 mg/ml) for one hour at 4° C. and subsequently analyzed on a cytofluorimeter (Epics XL-MCL, Beckman).
The percentage of sub-G1 peaks, i.e. the percentage of fragmented DNA, and consequently the number of conjunctival cells degraded by apoptosis, was measured.

[4] = after instillation into the eye (De Saint Jean et al. 1999); cited from earlier work

| Molecule | Production of superoxide anion and cellular degeneration associated with lipid peroxidation (hydroethidine test) [1] | Deleterious effects of free radicals on corneal and/or conjunctival cells (DCFH-DA test) [2] | Percentage of sub-G1 peaks ([3]; alpha-lipoic acid 0.5 μg/ml DMEM + BAC 0.001%) [%] | Percentage of sub-G1 peaks ([3]; alpha-lipoic acid 0.5 μg/ml in DMEM, no BAC (control)) [%] | Percentage of sub-G1 peaks ([3]; alpha-lipoic acid 5 μg/ml DMEM + BAC 0.001%) [%] | Percentage of sub-G1 peaks ([3]; alpha-lipoic acid 5 μg/ml in DMEM, no BAC (control)) [%] | Percentage of sub-G1 peaks ([3]; BAC 0.001% alone in DMEM (reference, maximum apoptosis; DMEM control = 10)) [%] | Half-life [4] [h] |
| --- | --- | --- | --- | --- | --- | --- | --- | --- |
| O=C(O)CCCCC1CCSS1 (racemic) [Alpha-lipoic acid, racemic alpha-lipoic acid] | significant dose-related reduction | significant dose-related decrease | 8 | 7 | 13 | 7 |  |  |
| benzalkonium chloride [BAC] |  |  |  |  |  |  | 23 | 20 |
